Laboratory results reported in patent US7973147B2, “K04-0144 substance and a process for production thereof” (The Kitasato Institute, priority 2006, dated 2011).
Values after ≈ are worked out from the molar mass of the structure shown. “Also recorded” adds a separate entry of the source. Like-named read-outs stand apart in the source and are kept apart here.

What was measured:
[1] = test system: MRSA (Clinical isolate, the Kitasato Hospital, Japan); test: Enhancing action of K04-0144D substance on antibiotic activities, broth microdilution method; assay type: cell-based, methicillin-resistant Staphylococcus aureus; conditions: for MIC: Staphylococcus aureus, MRSA
[2] = test system: E. facecalis NTCT12201(VanA); test: MIC, agar plate dilution method; assay type: cell-based; conditions: E. facecalis NTCT12201(VanA); 37° C., 20 hours; read-out: MIC
Experimental: (§1) Assay of minimum inhibitory concentration (MIC) was performed according to the agar plate dilution method (Method of Japan Society of Chemotherapy, CHEMOTHERAPY 29, 76-79, 1981).
(§2) Test organisms used were 27 types of microorganisms including clinical isolates of methicillin-resistant Staphylococcus aureus. Each test organism was cultured in Mueller-Hinton broth (2.1% w/v) (DIFCO) at 37° C. for 20 hours, and the cultured cells were suspended to about 10^6 cell counts/ml in the same medium, then was used as the microbial suspension for inoculation. The prepared microbial suspension was smeared by using the microplanter on MHA medium (Mueller-Hinton broth 2.1% (w/v) and agar 1.5%) containing K04-0144A substance, K04-0144B substance or K04-0144C substance, each of which was subjected to two-fold stepwise dilution from 128 μg/ml. After culturing at 37° C. for 20 hours, MIC was determined by macroscopically confirming the growth of microorganisms. Vancomycin, arbekacin and linezolid were used as a comparative control.

[3] = test system: M. morganii IID Kono; test: MIC, agar plate dilution method; assay type: cell-based; conditions: Morganella morganii; M. morganii IID Kono; 37° C., 20 hours; read-out: MIC
Experimental: as §1, §2

[4] = test system: S. aureus 8325(pEP2104); test: MIC, agar plate dilution method; assay type: cell-based; conditions: Staphylococcus aureus, 20 h
Experimental: as §1, §2

[5] = test system: E. coli NIHJ JC-2; test: MIC, agar plate dilution method; assay type: cell-based; conditions: Escherichia coli, NIHJJC2; E. coli NIHJ JC-2; 37° C., 20 hours; read-out: MIC
Experimental: as §1, §2

[6] = test system: E. cloacae IFO13535; test: MIC, agar plate dilution method; assay type: cell-based; conditions: Enterobacter cloacae; E. cloacae IFO13535; 37° C., 20 hours; read-out: MIC
Experimental: as §1, §2

[7] = test system: E. faecalis ATCC21212; test: MIC, agar plate dilution method; assay type: cell-based; conditions: Enterococcus faecalis; E. faecalis ATCC21212; 37° C., 20 hours; read-out: MIC
Experimental: as §1, §2

[8] = test system: S. aureus FDA209P; test: MIC, agar plate dilution method; assay type: cell-based; conditions: Staphylococcus aureus; S. aureus FDA209P; 37° C., 20 hours; read-out: MIC
Experimental: as §1, §2

[9] = test system: A. calcoaceticus IFO2552; test: MIC, agar plate dilution method; assay type: cell-based; conditions: Acinetobacter calcoaceticus; A. calcoaceticus IFO2552; 37° C., 20 hours; read-out: MIC
Experimental: as §1, §2

[10] = test system: K. pneumoniae NCTN9632; test: MIC, agar plate dilution method; assay type: cell-based; conditions: Klebsiella pneumoniae; K. pneumoniae NCTN9632; 37° C., 20 hours; read-out: MIC
Experimental: as §1, §2

[11] = test system: C. freundii ATCC8090; test: MIC, agar plate dilution method; assay type: cell-based; conditions: Citrobacter freundii; C. freundii ATCC8090; 37° C., 20 hours; read-out: MIC
Experimental: as §1, §2

[12] = test system: E. aerogenes NCTC10006; test: MIC, agar plate dilution method; assay type: cell-based; conditions: Klebsiella aerogenes; E. aerogenes NCTC10006; 37° C., 20 hours; read-out: MIC
Experimental: as §1, §2

[13] = test system: P. aeruginosa 46001; test: MIC, agar plate dilution method; assay type: cell-based; conditions: Pseudomonas aeruginosa; P. aeruginosa 46001; 37° C., 20 hours; read-out: MIC
Experimental: as §1, §2

[14] = test system: S. marcescens IFO12648; test: MIC, agar plate dilution method; assay type: cell-based; conditions: Serratia marcescens; S. marcescens IFO12648; 37° C., 20 hours; read-out: MIC
Experimental: as §1, §2

[15] = test system: S. aureus ISP447; test: MIC, agar plate dilution method; assay type: cell-based; conditions: Staphylococcus aureus; S. aureus ISP447; 37° C., 20 hours; read-out: MIC
Experimental: as §1, §2

[16] = test system: P. aeruginosa E-2; test: MIC, agar plate dilution method; assay type: cell-based; conditions: Pseudomonas aeruginosa, E2; P. aeruginosa E-2; 37° C., 20 hours; read-out: MIC
Experimental: as §1, §2

[17] = test system: E. faecium NTCT12203(VanA); test: MIC, agar plate dilution method; assay type: cell-based; conditions: Enterococcus faecium; E. faecium NTCT12203(VanA); 37° C., 20 hours; read-out: MIC
Experimental: as §1, §2

[18] = test system: S. epidermidis IFO12648; test: MIC, agar plate dilution method; assay type: cell-based; conditions: Staphylococcus epidermidis; S. epidermidis IFO12648; 37° C., 20 hours; read-out: MIC
Experimental: as §1, §2

[19] = test system: P. mirabilis IFO3849; test: MIC, agar plate dilution method; assay type: cell-based; conditions: Proteus mirabilis; P. mirabilis IFO3849; 37° C., 20 hours; read-out: MIC
Experimental: as §1, §2

[20] = test system: S. aureus ISP217; test: MIC, agar plate dilution method; assay type: cell-based; conditions: Staphylococcus aureus; S. aureus ISP217; 37° C., 20 hours; read-out: MIC
Experimental: as §1, §2

[21] = test system: M. luteus ATCC9341; test: MIC, agar plate dilution method; assay type: cell-based; conditions: Micrococcus luteus; M. luteus ATCC9341; 37° C., 20 hours; read-out: MIC
Experimental: as §1, §2

[22] = test system: P. vulgaris OX-19; test: MIC, agar plate dilution method; assay type: cell-based; conditions: Proteus vulgaris, OX19; P. vulgaris OX-19; 37° C., 20 hours; read-out: MIC
Experimental: as §1, §2

[23] = test system: S. aureus 8325(pMS97); test: MIC, agar plate dilution method; assay type: cell-based; conditions: Staphylococcus aureus, 20 h
Experimental: as §1, §2

[24] = test system: S. aureus Smith; test: MIC, agar plate dilution method; assay type: cell-based; conditions: Staphylococcus aureus; S. aureus Smith; 37° C., 20 hours; read-out: MIC
Experimental: as §1, §2

[25] = test system: MRSA 70; test: MIC, agar plate dilution method; assay type: cell-based, methicillin-resistant Staphylococcus aureus; conditions: Staphylococcus aureus
Experimental: as §1, §2

[26] = test system: MRSA N315 IR94 HR-1; test: MIC, agar plate dilution method; assay type: cell-based, methicillin-resistant Staphylococcus aureus; conditions: Staphylococcus aureus, 20 h
Experimental: as §1, §2

[27] = test system: MRSA N315 IR94; test: MIC, agar plate dilution method; assay type: cell-based, methicillin-resistant Staphylococcus aureus; conditions: Staphylococcus aureus, 20 h
Experimental: as §1, §2

[28] = test system: MRSA 92-1191; test: MIC, agar plate dilution method; assay type: cell-based, methicillin-resistant Staphylococcus aureus; conditions: Staphylococcus aureus; MRSA 92-1191; 37° C., 20 hours; read-out: MIC
Experimental: as §1, §2

[29] = Solubility in solvent; assay type: physicochemical

Structure (SMILES): C[C@@H](O)[C@H]1C(=O)N2C(C(=O)O)=C(SCCN=CN)C[C@H]12 [Imipenem, imipenem]
- Ratio (−/+K04-0144D) ([1]; MIC alone / MIC with K04-0144D substance 16 μg/ml): 1024
- MIC ([1]; antibiotic alone, without K04-0144D substance, read-out: Minimum Inhibitory Concentration (−)): 32 µg/mL
- MIC ([1]; combined use with K04-0144D substance 16 μg/ml, read-out: Minimum Inhibitory Concentration (+)): 0.03 µg/mL

Structure (SMILES): C=C(C/C=C(\C)CCC=C(C)C)CCC(C)(C)/C=C/CC/C(C)=C\COC(COP(=O)(O)OC1OC(C(N)=O)C(C)(O)C(OC(N)=O)C1OC1OC(CO)C(OC2OC(C)C(OC3OC(C(=O)O)C(O)C(O)C3O)C(O)C2NC(C)=O)C(O)C1NC(C)=O)C(=O)O (centres unmarked) [K04-0144B]
- MIC [2]: 2 µg/mL (≈ 1.51 µM)
- MIC [3]: > 16 µg/mL
- MIC [4]: 0.06 µg/mL (≈ 0.0453 µM)
- MIC [5]: > 16 µg/mL
- MIC [6]: > 16 µg/mL
- MIC [7]: 2 µg/mL (≈ 1.51 µM)
- MIC [8]: 2 µg/mL (≈ 1.51 µM)
- MIC [9]: 8 µg/mL (≈ 6.04 µM)
- MIC [10]: > 16 µg/mL
- MIC [11]: > 16 µg/mL
- MIC [12]: > 16 µg/mL
- MIC [13]: > 16 µg/mL
- MIC [14]: > 16 µg/mL
- MIC [15]: 0.5 µg/mL (≈ 0.377 µM)
- MIC [16]: > 16 µg/mL
- MIC [17]: > 16 µg/mL
- MIC [18]: 8 µg/mL (≈ 6.04 µM)
- MIC [19]: 16 µg/mL (≈ 12.1 µM)
- MIC [20]: 0.5 µg/mL (≈ 0.377 µM)
- MIC [21]: > 16 µg/mL
- MIC [22]: 4 µg/mL (≈ 3.02 µM)
- MIC [23]: 1 µg/mL (≈ 0.755 µM)
- MIC [24]: 2 µg/mL (≈ 1.51 µM)
- MIC ([25]; MRSA, 20 h): 0.125 µg/mL (≈ 0.0943 µM)
- MIC [26]: 0.125 µg/mL (≈ 0.0943 µM)
- MIC [27]: 0.125 µg/mL (≈ 0.0943 µM)
- MIC [28]: 1 µg/mL (≈ 0.755 µM)
- Solubility in solvent ([29]; listed as K04-0144B Substance): Soluble in water, methanol and dimethyl sulfoxide; also recorded: Insoluble in acetone, chloroform and n-hexane

Structure (SMILES): C=C(C/C=C(\C)CCC=C(C)C)CCC(C)(C)/C=C/CC/C(C)=C\COC(COP(=O)(O)OC1OC(C(N)=O)C(C)(O)C(OC(N)=O)C1OC1OC(CO)C(OC2OC(C)C(OC3OC(C(N)=O)C(O)C(O)C3O)C(O)C2NC(C)=O)C(O)C1NC(C)=O)C(=O)O (centres unmarked) [K04-0144C]
- MIC [2]: 0.5 µg/mL (≈ 0.378 µM)
- MIC [3]: 32 µg/mL (≈ 24.2 µM)
- MIC [4]: 0.5 µg/mL (≈ 0.378 µM)
- MIC [5]: 8 µg/mL (≈ 6.04 µM)
- MIC [6]: 32 µg/mL (≈ 24.2 µM)
- MIC [7]: 0.5 µg/mL (≈ 0.378 µM)
- MIC [8]: 1 µg/mL (≈ 0.755 µM)
- MIC [9]: 8 µg/mL (≈ 6.04 µM)
- MIC [10]: 8 µg/mL (≈ 6.04 µM)
- MIC [11]: 64 µg/mL (≈ 48.3 µM)
- MIC [12]: 32 µg/mL (≈ 24.2 µM)
- MIC [13]: 32 µg/mL (≈ 24.2 µM)
- MIC [14]: 32 µg/mL (≈ 24.2 µM)
- MIC [15]: ≤ 0.25 µg/mL
- MIC [16]: 32 µg/mL (≈ 24.2 µM)
- MIC [17]: 64 µg/mL (≈ 48.3 µM)
- MIC [18]: 1 µg/mL (≈ 0.755 µM)
- MIC [19]: 8 µg/mL (≈ 6.04 µM)
- MIC [20]: ≤ 0.25 µg/mL
- MIC [21]: > 128 µg/mL
- MIC [22]: 4 µg/mL (≈ 3.02 µM)
- MIC [23]: 0.5 µg/mL (≈ 0.378 µM)
- MIC [24]: 1 µg/mL (≈ 0.755 µM)
- MIC ([25]; MRSA 70, 37° C., 20 hours, read-out: MIC): ≤ 0.25 µg/mL
- MIC [26]: ≤ 0.25 µg/mL
- MIC [27]: ≤ 0.25 µg/mL
- MIC [28]: 0.5 µg/mL (≈ 0.378 µM)
- Solubility in solvent ([29]; listed as K04-0144C substance): Soluble in water, methanol and dimethyl sulfoxide; also recorded: Insoluble in acetone, chloroform and n-hexane
